The values that follow are results of earlier work, collected in PubChem BioAssay AID1259409 (Chemical Carcinogenesis Research Information System (CCRIS), 2018).

The data set relates to rodent chemically induced tumor inhibition, incidence and multiplicity. Briefly: CCRIS tumor inhibitor studies. To be noted: Route [Inhibitor]: ORAL.

As for `O=C1O[C@H]([C@@H](O)CO)C(O)=C1O`, the “tumour outcome (control, treated, inhibition, significance)” value reads like this: (Carcinogen: 1,2-DIMETHYLHYDRAZINE, 540-73-8, Dose [Inhibitor]: 0.3% IN DRINKING WATER BEGINNING POST LAST CARCINOGEN DOSE AND CONTINUING FOR DURATION OF STUDY (STUDY DURATION: 55 WK), Species: MOUSE, Strain/Sex: CBA/FEMALE, Target Tissue: Type of Lesion: UTERUS (ENDOMETRIUM): STROMAL SARCOMA, Dose [Carcinogen]: 8 MG/KG BW IN WATER 1/WK FOR 8 WK, Promoter: ESTRADIOL PROPIONATE, 113-38-2) 13/40 (33%), 3/40 (8%), 77%, not calculated; (Carcinogen: 1,2-DIMETHYLHYDRAZINE, 540-73-8, Dose [Inhibitor]: 1% IN 20% FAT DIET DAILY STARTING 2 WK BEFORE CARCINOGEN TREATMENT AND CONTINUING FOR DURATION OF STUDY (STUDY DURATION:, Species: RAT, Strain/Sex: F344/FEMALE, Target Tissue: Type of Lesion: COLON: ADENOMA, ADENOCARCINOMA, Dose [Carcinogen]: 150 MG/KG BW IN 0.9% SALINE ADJUSTED TO PH 6.8 ONCE, Promoter: NONE USED) 26%, 0%, 100%, p<0.05; (Carcinogen: 1,2-DIMETHYLHYDRAZINE, 540-73-8, Dose [Inhibitor]: 1% IN 20% FAT DIET DAILY STARTING 2 WK BEFORE CARCINOGEN TREATMENT AND CONTINUING FOR DURATION OF STUDY (STUDY DURATION:, Species: RAT, Strain/Sex: F344/FEMALE, Target Tissue: Type of Lesion: KIDNEY: NEPHROBLASTOMA, ADENOCARCINOMA, Dose [Carcinogen]: 150 MG/KG BW IN 0.9% SALINE ADJUSTED TO PH 6.8 ONCE, Promoter: NONE USED) 22%, 0%, 100%, p<0.05; (Carcinogen: 1,2-DIMETHYLHYDRAZINE, 540-73-8, Dose [Inhibitor]: 1% IN 20% FAT DIET DAILY STARTING 2 WK BEFORE START OF CARCINOGEN TREATMENT AND CONTINUING FOR DURATION OF STUDY (STUDY, Species: RAT, Strain/Sex: F344/FEMALE, Target Tissue: Type of Lesion: COLON: ADENOCARCINOMA, Dose [Carcinogen]: 20 MG/KG BW IN 0.9% SALINE 1/WK FOR 10 WK, Promoter: NONE USED) 33%, 39%, -18%, not significant; (Carcinogen: 1,2-DIMETHYLHYDRAZINE, 540-73-8, Dose [Inhibitor]: 1% IN 20% FAT DIET DAILY STARTING 2 WK BEFORE START OF CARCINOGEN TREATMENT AND CONTINUING FOR DURATION OF STUDY (STUDY, Species: RAT, Strain/Sex: F344/FEMALE, Target Tissue: Type of Lesion: COLON: ADENOMA, Dose [Carcinogen]: 20 MG/KG BW IN 0.9% SALINE 1/WK FOR 10 WK, Promoter: NONE USED) 42%, 39%, 7%, not significant; (Carcinogen: 1,2-DIMETHYLHYDRAZINE, 540-73-8, Dose [Inhibitor]: 1% IN 20% FAT DIET DAILY STARTING 2 WK BEFORE START OF CARCINOGEN TREATMENT AND CONTINUING FOR DURATION OF STUDY (STUDY, Species: RAT, Strain/Sex: F344/FEMALE, Target Tissue: Type of Lesion: DUODENUM: ADENOCARCINOMA, ADENOMA, Dose [Carcinogen]: 20 MG/KG BW IN 0.9% SALINE 1/WK FOR 10 WK, Promoter: NONE USED) 25%, 26%, -4%, not significant. The “tumour outcome (control, treated, inhibition, significance)” value is, setting by setting: (Carcinogen: 1,2-DIMETHYLHYDRAZINE, 540-73-8, Dose [Inhibitor]: 1% IN 20% FAT DIET DAILY STARTING 2 WK BEFORE START OF CARCINOGEN TREATMENT AND CONTINUING FOR DURATION OF STUDY (STUDY, Species: RAT, Strain/Sex: F344/FEMALE, Target Tissue: Type of Lesion: EAR DUCT: SQUAMOUS CELL CARCINOMA, Dose [Carcinogen]: 20 MG/KG BW IN 0.9% SALINE 1/WK FOR 10 WK, Promoter: NONE USED) 13%, 13%, 0%, not significant; (Carcinogen: 1,2-DIMETHYLHYDRAZINE, 540-73-8, Dose [Inhibitor]: 1% IN 20% FAT DIET DAILY STARTING 2 WK BEFORE START OF CARCINOGEN TREATMENT AND CONTINUING FOR DURATION OF STUDY (STUDY, Species: RAT, Strain/Sex: F344/FEMALE, Target Tissue: Type of Lesion: KIDNEY: NEPHROBLASTOMA, ADENOCARCINOMA, Dose [Carcinogen]: 20 MG/KG BW IN 0.9% SALINE 1/WK FOR 10 WK, Promoter: NONE USED) 13%, 18%, -38%, not significant; (Carcinogen: 1,2-DIMETHYLHYDRAZINE, 540-73-8, Dose [Inhibitor]: 1.2% IN DIET DAILY STARTING 2 WK PRIOR TO CARCINOGEN TREATMENT AND CONTINUING FOR DURATION OF STUDY (STUDY DURATION: 28, Species: RAT, Strain/Sex: SPRAGUE-DAWLEY/MALE, Target Tissue: Type of Lesion: COLON: ADENOCARCINOMA, Dose [Carcinogen]: 20 MG/KG BW IN BACTERIOSTATIC SALINE 1/WK FOR 20 WK, Promoter: NONE USED) 64%, 38%, 41%, not calculated; (Carcinogen: 3-METHYLCHOLANTHRENE, 56-49-5, Dose [Inhibitor]: 0, 1.25% IN DRINKING WATER FOR DURATION OF STUDY BEGINNING 15 D PRIOR TO CARCINOGEN TREATMENT (STUDY DURATION: 150 D), Species: MOUSE, Strain/Sex: LACA/MALE, Target Tissue: Type of Lesion: GLANDULAR STOMACH: TUMOR, Dose [Carcinogen]: 2.2 MG (AVERAGE DOSE) ON COTTON THREADS IMPLANTED IN GLANDULAR STOMACH, Promoter: NONE USED) 66%, 28%, 58%, p<0.02; (Carcinogen: 3-METHYLCHOLANTHRENE, 56-49-5, Dose [Inhibitor]: 0, 2 MG/ML IN DRINKING WATER FOR 6 WK BEGINNING ON FIRST DAY OF CARCINOGEN TREATMENT (STUDY DURATION: 16 WK), Species: MOUSE, Strain/Sex: SWISS/FEMALE, Target Tissue: Type of Lesion: CERVIX: SQUAMOUS CELL CARCINOMA, Dose [Carcinogen]: 600 UG IN BEESWAX IMPREGNATED COTTON THREAD FOR DURATION OF STUDY, Promoter: NONE USED) 16/21 (76%), 5/15 (33%), 57%, p<0.02; (Carcinogen: 3-METHYLCHOLANTHRENE, 56-49-5, Dose [Inhibitor]: 0, 2 MG/ML IN DRINKING WATER FOR 10 WK BEGINNING 6 WK AFTER FIRST DAY OF CARCINOGEN TREATMENT (STUDY DURATION: 16 WK), Species: MOUSE, Strain/Sex: SWISS/FEMALE, Target Tissue: Type of Lesion: CERVIX: SQUAMOUS CELL CARCINOMA, Dose [Carcinogen]: 600 UG IN BEESWAX IMPREGNATED COTTON THREAD FOR DURATION OF STUDY, Promoter: NONE USED) 16/21 (76%), 8/12 (67%), 12%, not significant. Moreover, the “tumour outcome (control, treated, inhibition, significance)” value is 16/21 (76%), 5/15 (33%), 57%, p<0.02 (Carcinogen: 3-METHYLCHOLANTHRENE, 56-49-5, Dose [Inhibitor]: 0, 2 MG/ML IN DRINKING WATER FOR 16 WK (STUDY DURATION: 16 WK), Species: MOUSE, Strain/Sex: SWISS/FEMALE, Target Tissue: Type of Lesion: CERVIX: SQUAMOUS CELL CARCINOMA, Dose [Carcinogen]: 600 UG IN BEESWAX IMPREGNATED COTTON THREAD FOR DURATION OF STUDY, Promoter: NONE USED) and 100%, 57%, 43%, p<0.001 (Carcinogen: 7,12-DIMETHYLBENZ[A]ANTHRACENE, 57-97-6, Dose [Inhibitor]: 0, 30 MG/ML IN DRINKING WATER FROM 40-90 D OF AGE THEN 0, 20 MG/ML FROM 90-180 D OF AGE AND 0, 10 MG/ML FROM 180-240 D O, Dose [Inhibitor]: 0, 30 MG/ML IN DRINKING WATER FROM 40-90 D OF AGE THEN 0, 20 MG/ML FROM 90-180 D OF AGE AND 0, 10 MG/ML FROM 180-240 D O, Species: RAT, Strain/Sex: SPRAGUE-DAWLEY/FEMALE, Target Tissue: Type of Lesion: MAMMARY GLAND: ADENOCARCINOMA, FIBROADENOMA, Dose [Carcinogen]: 5 MG IN 0.2 ML SESAME OIL 1/2 D FOR 12 D BEGINNING AT 50 D OF AGE, Promoter: NONE USED).
